Laboratory results published in US9983211B2 (priority 2007, dated 2018).

Details: in vivo

N#CC(O)c1ccccc1 (stereo not shown) [mandelonitrile]
times less toxic than sodium cyanide: approximately 18 times
